Assay results: patent US11779628B2, “Use of cell-permeable peptide inhibitors of the JNK signal transduction pathway for the treatment of various diseases” (Xigen Inflammation Ltd., priority 2014, dated 2023)

Key:
[1] = human, in vivo, 1 h
Description: The quantification (plasma) of XG-102 in plasma was evaluated in a subset of 32 patients located in one site. A venous blood sample (2 ml) was obtained using a Li-Heparin tube 60 minutes after sub-conjunctival administration of study treatment. The exact time when the sample was performed was entered in the space provided on the e-CRF. The blood sample was centrifuged for 10 minutes at 2,500 RPM at room temperature. After centrifugation, using a pipette, the plasma was transferred to two 1.5 ml cryotubes. The cryotubes were then placed in a freezer at −80° C. and were then subsequently sent in dry ice with a temperature data logger to the central laboratory responsible for the analysis. Upon receipt at the central laboratory, the samples were stored at −80° C. until analyzed.

[2] = system: Wistar rats, PAN-induced nephropathy; settings: rat, in vivo
Source text: The aim of this study was to evaluate the effects of XG-102 on chronic puromycine aminonucleoside-induced nephropathy in rats during 56 days. Puromycin aminonucleoside (PAN) is a podocyte toxin inducing a loss and fusion of podocytes foot processes. PAN-induced nephropathy is a well-described model of human idiopathic […] syndrome and focal segmental glomerulosclerosis ([…], 2008). The glomerular morphologic changes seen in rats with PAN nephrosis closely resemble those in human minimal change disease (MCD) and focal segmental glomerulosclerosis (FSGS). Intraperitoneal administration of PAN in rats results in a rapid development of […] syndrome, characterized by proteinuria, hypoalbuminemia and hypercholesterolemia (acute phase). This is a well-established animal model of human MCD. […] The slides were stained by hematoxylin/eosin (HE), PAS-methenamine silver and Sirius Red for histological evaluation of morphological alterations, glomerulosclerosis and interstitial fibrosis quantification, respectively. […] Results are expressed by semi-quantitative scoring following to expert histopathologist evaluation. For the histological examination of glomerulosclerosis glomerular changes have been evaluated using a semi quantitative scoring system as described by […]. […] All data have been calculated as mean values±standard error of the mean (s.e.m.). […]

rabbits = assay: Ocular MTD studies, sub-conjunctival administration; type: in vivo, rabbit
Source text: Despite technical advances in ocular surgery, the physical trauma of this procedure continues to induce post-operative ocular inflammation warranting treatment. In ocular tissue, arachidonic acid is metabolized by cyclooxygenase (COX) to prostaglandins (PG) which are the most important lipid-derived mediators of inflammation. Surgical trauma causes a trigger of the arachidonic acid cascade which in turn generates PGs by activation of COX-1 and COX-2. Phospholipids in the cell membrane are the substrate for phospholipase A to generate arachidonic acid from which a family of chemically distinct PGs and leukotriens are produced. The ‘golden standard’ for the treatment of ocular inflammation are topical corticosteroids and/or Non-Steroidal Anti-inflammatory Drugs (NSAIDs). Side effects reported with (short-term) corticosteroid use include cataract formation, increased Intra Ocular Pressure (IOP), increased susceptibility to viral infections and retardation of the corneal epithelial and stromal wound healing. In addition, prolonged treatment with corticosteroids have been known to induce systemic side effects such as glucose impairment, hypertension, development of glaucoma, visual acuity defects, loss of visual field, and posterior subcapsular cataract formation. […]

Question: What does the source list for `CC(C)C[C@@H](NC(=O)[C@@H](Cc1ccccc1)NC(=O)[C@H]1CCCN1C(=O)[C@@H](CCC(N)=O)NC(=O)[C@H](NC(=O)[C@H]1CCCN1C(=O)[C@@H](CCCNC(=N)N)NC(=O)[C@@H](CO)NC(=O)[C@@H](CCC(N)=O)NC(=O)[C@H](N)CC(=O)O)C(C)C)C(=O)N[C@H](CC(N)=O)C(=O)N[C@H](CC(C)C)C(=O)N[C@@H](C(=O)N[C@@H](C(=O)N1CCC[C@@H]1C(=O)N[C@H](CCCNC(=N)N)C(=O)N[C@H](CCCCN)C(=O)N1CCC[C@@H]1C(=O)N[C@H](CCCNC(=N)N)C(=O)N1CCC[C@@H]1C(=O)N1CCC[C@@H]1C(=O)N[C@H](CCCNC(=N)N)C(=O)N[C@H](CCCNC(=N)N)C(=O)N[C@H](CCCNC(=N)N)C(=O)N[C@H](CCC(N)=O)C(=O)N[C@H](CCCNC(=N)N)C(=O)N[C@H](CCCNC(=N)N)C(=O)N[C@H](CCCCN)C(=O)N[C@H](CCCCN)C(=O)N[C@H](CCCNC(=N)N)C(=O)NCC(=O)O)[C@H](C)O)[C@H](C)O` [XG-102]?
Answer: XG-102 concentration in plasma [1]: < 10 ng/mL; body weight [2]: no effects of XG-102 were observed; No Observed Adverse Effect Level (NOAEL) (rabbits): ~600 µg
